From US20260297042A1, “BIARYLAMIDE DERIVATIVES AND THEIR USE AS PKMYT1 INHIBITORS” (CANCER RESEARCH TECHNOLOGY LIMITED, priority 2023, published 2026) come the findings set out here.

Each structure is given as a SMILES string. Where a name gives a salt, the structure may show the parent alone.

One experiment concerns the target T1, Human PKMYT1 (Homo sapiens, UniProt Q99640).
T1 construct: Human PKMYT1 75-362 was cloned as a TEV cleavable 6xHis fusion; 6xHis (TEV cleavable) (cleaved yes); made in house; host or cells: bacterial cells
T1 sequence (Q99640 75-362): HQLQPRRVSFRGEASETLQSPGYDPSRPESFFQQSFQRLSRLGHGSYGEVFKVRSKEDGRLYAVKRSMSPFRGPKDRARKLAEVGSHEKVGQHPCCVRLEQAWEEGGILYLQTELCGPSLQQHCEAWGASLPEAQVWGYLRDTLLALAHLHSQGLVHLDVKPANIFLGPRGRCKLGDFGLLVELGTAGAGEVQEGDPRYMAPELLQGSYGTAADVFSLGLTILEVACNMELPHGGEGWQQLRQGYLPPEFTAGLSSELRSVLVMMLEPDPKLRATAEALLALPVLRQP
Description: PKMYT1 biochemical ADP-Glo enzymatic assay. The following applies: ADP-Glo. In short, it runs like this:
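Measures inhibition of PKMYT1 autonomous ATP hydrolysis: bacterially expressed human enzyme (75-362, tag cleaved) at 15 nM with 500 µM ATP for 60 min at 26 °C, then ADP-Glo Max detection. IC50s accepted only when replicates agreed within 3-fold and curve r2 exceeded 0.9.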
In general terms: In ADP-Glo the light output rises with the ADP produced.

A further experiment deals with T2, WEE1 (Homo sapiens, UniProt P30291).
T2 construct: purchased Thermo Fisher PR7373A
T2 sequence (P30291 whole entry): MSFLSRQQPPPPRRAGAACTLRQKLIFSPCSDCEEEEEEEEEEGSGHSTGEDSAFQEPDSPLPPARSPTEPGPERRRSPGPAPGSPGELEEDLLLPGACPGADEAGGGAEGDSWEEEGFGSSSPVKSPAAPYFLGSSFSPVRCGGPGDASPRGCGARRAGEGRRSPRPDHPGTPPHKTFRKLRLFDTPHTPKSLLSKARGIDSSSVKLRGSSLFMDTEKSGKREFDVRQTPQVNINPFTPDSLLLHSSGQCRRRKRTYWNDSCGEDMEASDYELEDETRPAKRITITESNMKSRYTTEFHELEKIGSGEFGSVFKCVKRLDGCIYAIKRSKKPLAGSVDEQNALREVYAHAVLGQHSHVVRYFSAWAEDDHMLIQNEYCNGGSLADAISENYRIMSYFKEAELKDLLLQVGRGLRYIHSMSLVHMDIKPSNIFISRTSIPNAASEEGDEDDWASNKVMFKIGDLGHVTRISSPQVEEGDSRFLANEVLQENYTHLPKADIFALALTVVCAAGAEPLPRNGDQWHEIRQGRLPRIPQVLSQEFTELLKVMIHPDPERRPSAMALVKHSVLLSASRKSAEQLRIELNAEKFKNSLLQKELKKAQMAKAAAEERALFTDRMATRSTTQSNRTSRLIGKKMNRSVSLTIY
Put plainly: Selectivity versus WEE1 assay (ADP-Glo enzymatic assay). It counts as biochemical. The following applies: for IC50: ADP-Glo; for PKMYT1 vs. WEE1 selectivity: fold difference in selectivity for PKMYT1 over WEE1. In short, it runs like this:
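Same format as the PKMYT1 assay: WEE1 at 15 nM final with 30 µM ATP, 60 min at 26° C, ADP-Glo luminescence detection, IC50 by dose-response fitting.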

[1] abbreviates: PKMYT1 kinase domain 15 nM, banded values.
Where [2] appears, read: 15 nM PKMYT1 kinase domain, 500 µM ATP, 60 minutes at 26° C., banded.
The mark [3] stands for this setting: 15 nM WEE1, 60 minutes at 26° C., banded.
The mark [4] stands for this setting: banded, ">N" = at least in this band but could be higher.

One may read the IC50 as the point on the concentration scale where inhibition reaches its midpoint. A high value points to a need for much substance. Consider `Cn1cc(Br)c(Nc2ncc(C(=O)Nc3c(F)ccc(O)c3Cl)s2)n1` [BAA-472, 2-((4-Bromo-1-methyl-1H-pyrazol-3-yl)amino)-N-(2-chloro-6-fluoro-3-hydroxyphenyl)thiazole-5-carboxamide], for which the IC50 is below 50 nM on Human PKMYT1 (setting [1]) and above 11000 nM on WEE1 (WEE1 15 nM, banded values). Besides, the “PKMYT1 vs. WEE1 selectivity” value on WEE1 (banded) is “X (100-<1000 fold)”.
As for `Cc1ccc(O)c(C)c1NC(=O)c1cnc(Nc2ccc3cc(Br)ccc3n2)s1` [BAA-300, 2-((6-bromoquinolin-2-yl)amino)-N-(3-hydroxy-2,6-dimethylphenyl)thiazole-5-carboxamide], the IC50 was 50 to 1000 nM on Human PKMYT1 (setting [2]) and above 11000 nM on WEE1 (setting [3]). In addition, the “PKMYT1 vs. WEE1 selectivity” value on WEE1 (setting [4]) is on record as “X (100-<1000 fold)”.
On the same counts, the results for `CC(=O)N1CCN(C(=O)Cn2ccc(Nc3ncc(C(=O)Nc4c(C)ccc(O)c4C)s3)n2)CC1` [BAA-145] are below 50 nM, above 11000 nM and “Y (1000-5000 fold)”.
As for `Cc1ccc(O)c(C)c1NC(=O)c1cnc(Nc2cncc(-c3ccc(F)cc3)c2)s1` [BAA-305, 2-((5-(4-fluorophenyl)pyridin-3-yl)amino)-N-(3-hydroxy-2,6-dimethylphenyl)thiazole-5-carboxamide], the IC50 is 1000 to 11000 nM against Human PKMYT1 (setting [2]) and above 11000 nM at WEE1 (setting [3]). In addition, the “PKMYT1 vs. WEE1 selectivity” value on WEE1 (setting [4]) is “W (10-<100 fold)”.
With `Cc1ccc(O)c(C)c1NC(=O)c1cnc(Nc2ccn(CC(=O)N3CCC(O)CC3)n2)s1` [BAA-132, N-(3-Hydroxy-2,6-dimethyl-phenyl)-2-[[1-[2-(4-hydroxy-1-piperidyl)-2-oxo-ethyl]pyrazol-3-yl]amino]thiazole-5-carboxamide], the concentration for half-maximal inhibition (IC50) at Human PKMYT1 (setting [2]) is below 50 nM; against WEE1 (setting [3]), above 11000 nM. Further, the “PKMYT1 vs. WEE1 selectivity” value at WEE1 (setting [4]) is “Y (1000-5000 fold)”.
The matching figures for `Cc1cn(C2CNC2)nc1Nc1ncc(C(=O)Nc2c(C)ccc(O)c2C)s1` [BAA-273, 2-((1-(azetidin-3-yl)-4-methyl-1H-pyrazol-3-yl)amino)-N-(3-hydroxy-2,6-dimethylphenyl)thiazole-5-carboxamide hydrochloride]: below 50 nM, 50 to 1000 nM and “W (10-<100 fold)”.
Turning to `Cc1ccc(O)c(C)c1NC(=O)c1cnc(NCCC(=O)N2CCOCC2)s1` [BAA-078, N-(3-hydroxy-2,6-dimethyl-phenyl)-2-[(3-morpholino-3-oxo-propyl)amino]thiazole-5-carboxamide], the IC50 against Human PKMYT1 (setting [2]) was 50 to 1000 nM; against WEE1 (setting [3]), above 11000 nM. Besides, the “PKMYT1 vs. WEE1 selectivity” value at WEE1 (setting [4]) is recorded as “>X (100-<1000 fold)”.
On the same counts, the results for `Cc1ccc(O)c(C)c1NC(=O)c1cnc(NCC2CCNCC2)s1` [BAA-079, N-(3-hydroxy-2,6-dimethyl-phenyl)-2-(4-piperidylmethylamino)thiazole-5-carboxamide hydrochloride] are 1000 to 11000 nM, above 11000 nM and “>W (10-<100 fold)”.
On to `Cc1ccc(O)c(C)c1NC(=O)c1nnc(Nc2ccn(C3CCC3)n2)s1` [BAA-466, 5-((1-cyclobutyl-1H-pyrazol-3-yl)amino)-N-(3-hydroxy-2,6-dimethylphenyl)-1,3,4-thiadiazole-2-carboxamide], for which the IC50 is 50 to 1000 nM on Human PKMYT1 (setting [1]) and above 11000 nM against WEE1 (WEE1 15 nM, banded values). Further, on WEE1 (banded), the “PKMYT1 vs. WEE1 selectivity” value is “Y (1000-5000 fold)”.
For the compound `Cc1ccc(O)c(C)c1NC(=O)c1cnc(Nc2ccn(CC(=O)N3CCN(C4CCCC4)CC3)n2)s1` [BAA-186], the IC50 at Human PKMYT1 (setting [2]) was below 50 nM; against WEE1 (setting [3]), above 11000 nM. Also, at WEE1 (setting [4]), the “PKMYT1 vs. WEE1 selectivity” value was “Y (1000-5000 fold)”.
With `Cc1ccc(O)c(C)c1NC(=O)c1cnc(Nc2ccncn2)s1` [BAA-435, N-(3-hydroxy-2,6-dimethylphenyl)-2-(pyrimidin-4-ylamino)thiazole-5-carboxamide], the IC50 was below 50 nM on Human PKMYT1 (setting [1]) and above 11000 nM against WEE1 (WEE1 15 nM, banded values). The “PKMYT1 vs. WEE1 selectivity” value at WEE1 (banded) was “Y (1000-5000 fold)”.
Consider `Cc1ccc(O)c(C)c1NC(=O)c1cnc(Nc2ccn(CC(=O)N3CCOCC3)n2)s1` [BAA-033], for which the values for the IC50 on Human PKMYT1 (setting [2]) and against WEE1 (setting [3]) were below 50 nM and above 11000 nM, respectively. Also, at WEE1 (setting [4]), the “PKMYT1 vs. WEE1 selectivity” value was “X (100-<1000 fold)”.
On the same counts, the results for `Cc1ccc(O)c(C)c1NC(=O)c1cnc(Nc2ccn([C@@H]3CCN(C(=O)C4CCOCC4)C3)n2)s1` [BAA-082] are 50 to 1000 nM, above 11000 nM and “>X (100-<1000 fold)”.
`CCOc1ccccc1Nc1ncc(C(=O)Nc2c(C)ccc(O)c2C)s1` [BAA-539, 2-((2-ethoxyphenyl)amino)-N-(3-hydroxy-2,6-dimethylphenyl)thiazole-5-carboxamide. TFA salt]: the IC50 against Human PKMYT1 (setting [1]) was 50 to 1000 nM; at WEE1 (WEE1 15 nM, banded values), above 11000 nM. Also, the “PKMYT1 vs. WEE1 selectivity” value at WEE1 (banded) was “X (100-<1000 fold)”.
In the case of `Cc1ccc(O)c(C)c1NC(=O)c1cnc(Nc2cc(C)n(CCC#N)n2)s1` [BAA-518, 2-((1-(2-cyanoethyl)-5-methyl-1H-pyrazol-3-yl)amino)-N-(3-hydroxy-2,6-dimethylphenyl)thiazole-5-carboxamide], the IC50 on Human PKMYT1 (setting [1]) is below 50 nM; at WEE1 (WEE1 15 nM, banded values), 1000 to 11000 nM. Further, the “PKMYT1 vs. WEE1 selectivity” value at WEE1 (banded) is on record as “W (10-<100 fold)”.
For the compound `Cc1ccc(O)c(C)c1NC(=O)c1cnc(Nc2cc(C)n(CCC(=O)O)n2)s1` [BAA-241, 3-(3-((5-((3-hydroxy-2,6-dimethylphenyl)carbamoyl)thiazol-2-yl)amino)-5-methyl-1H-pyrazol-1-yl)propanoic acid], the IC50 on Human PKMYT1 (setting [2]) is 50 to 1000 nM; against WEE1 (setting [3]), above 11000 nM. At WEE1 (setting [4]), the “PKMYT1 vs. WEE1 selectivity” value is listed as “X (100-<1000 fold)”.
Regarding `Cc1ccc(O)c(C)c1NC(=O)c1cnc(Nc2cccc3scnc23)s1` [BAA-486, 2-(benzo[d]thiazol-4-ylamino)-N-(3-hydroxy-2,6-dimethylphenyl)thiazole-5-carboxamide], the IC50 on Human PKMYT1 (setting [1]) was 50 to 1000 nM; against WEE1 (WEE1 15 nM, banded values) it was above 11000 nM. Moreover, the “PKMYT1 vs. WEE1 selectivity” value at WEE1 (banded) was “X (100-<1000 fold)”.
Turning to `Cc1ccc(O)c(C)c1NC(=O)c1cnc(Nc2ccn(CC(=O)N3CCC4(CCNC4)CC3)n2)s1` [BAA-225, N-(3-hydroxy-2,6-dimethylphenyl)-2-((1-(2-oxo-2-(2,8-diazaspiro[4.5]decan-8-yl)ethyl)-1H-pyrazol-3-yl)amino)thiazole-5-carboxamide], the IC50 is below 50 nM against Human PKMYT1 (setting [2]) and above 11000 nM against WEE1 (setting [3]). Also, the “PKMYT1 vs. WEE1 selectivity” value at WEE1 (setting [4]) is given as “X (100-<1000 fold)”.
The matching figures for `Cc1ccc(O)c(C)c1NC(=O)c1sc(Nc2ccn(C)n2)nc1N` [BAA-219, 4-Amino-N-(3-hydroxy-2,6-dimethyl-phenyl)-2-[(1-methylpyrazol-3-yl)amino]thiazole-5-carboxamide]: 1000 to 11000 nM, 1000 to 11000 nM and “V (3-<10 fold)”.
With `Cc1ccc(O)c(C)c1NC(=O)c1cnc(Nc2cc(C(C)(C)C)nn2-c2ccccc2)s1` [BAA-359, 2-((3-(tert-butyl)-1-phenyl-1H-pyrazol-5-yl)amino)-N-(3-hydroxy-2,6-dimethylphenyl)thiazole-5-carboxamide], the IC50 at Human PKMYT1 (setting [2]) was 1000 to 11000 nM; against WEE1 (setting [3]), above 11000 nM. Also, at WEE1 (setting [4]), the “PKMYT1 vs. WEE1 selectivity” value is “W (10-<100 fold)”.
On the same counts, the results for `Cc1cn(-c2cncn2C)nc1Nc1ncc(C(=O)Nc2c(C)ccc(O)c2C)s1` [BAA-387, N-(3-hydroxy-2,6-dimethylphenyl)-2-((4-methyl-1-(1-methyl-1H-imidazol-5-yl)-1H-pyrazol-3-yl)amino)thiazole-5-carboxamide] are below 50 nM, 1000 to 11000 nM and “X (100-<1000 fold)”.
For `Cc1ccccc1Nc1ncc(C(=O)Nc2c(C)ccc(O)c2C)s1` [BAA-483, N-(3-hydroxy-2,6-dimethylphenyl)-2-(o-tolylamino)thiazole-5-carboxamide], the IC50 against Human PKMYT1 (setting [1]) is 50 to 1000 nM; at WEE1 (WEE1 15 nM, banded values), above 11000 nM. Further, the “PKMYT1 vs. WEE1 selectivity” value at WEE1 (banded) is given as “X (100-<1000 fold)”.
Regarding `Cc1ccc(O)c(C)c1NC(=O)c1cnc(Nc2ccn(CC(=O)N3CCC(F)(F)C3)n2)s1` [BAA-176], the IC50 is below 50 nM against Human PKMYT1 (setting [2]) and above 11000 nM at WEE1 (setting [3]). Further, the “PKMYT1 vs. WEE1 selectivity” value on WEE1 (setting [4]) is given as “Y (1000-5000 fold)”.
Regarding `Cc1nc(CNc2ncc(C(=O)Nc3c(C)ccc(O)c3C)s2)no1` [BAA-364, N-(3-hydroxy-2,6-dimethylphenyl)-2-(((5-methyl-1,2,4-oxadiazol-3-yl)methyl)amino) thiazole-5-carboxamide], the half-maximal inhibitory concentration (IC50) was 1000 to 11000 nM against Human PKMYT1 (setting [2]) and above 11000 nM at WEE1 (setting [3]). The “PKMYT1 vs. WEE1 selectivity” value on WEE1 (setting [4]) is “W (10-<100 fold)”.
